The subject of this data set is CCRIS mutagenicity, Ames/micronucleus/aberration tests. In words: CCRIS mutagenicity studies.
Setting [1] is: Test System: AMES SALMONELLA TYPHIMURIUM, Strain/Indicator: TA98, Metabolic Activation: NONE, Method: PREINCUBATION
[2] abbreviates: Test System: AMES SALMONELLA TYPHIMURIUM, Strain/Indicator: TA100, Metabolic Activation: NONE, Method: PREINCUBATION
Where [3] appears, read: Test System: AMES SALMONELLA TYPHIMURIUM, Strain/Indicator: TA1535, Metabolic Activation: NONE, Method: PREINCUBATION
The mark [4] stands for this setting: Test System: AMES SALMONELLA TYPHIMURIUM, Strain/Indicator: TA1537, Metabolic Activation: NONE, Method: PREINCUBATION
The mark [5] stands for this setting: Test System: AMES SALMONELLA TYPHIMURIUM, Strain/Indicator: TA100, Metabolic Activation: NONE, Method: STANDARD PLATE.
Setting [6] is: Test System: AMES SALMONELLA TYPHIMURIUM, Strain/Indicator: TA1537, Metabolic Activation: NONE, Method: STANDARD PLATE.

Calls of active or inactive are those of the source. No rule for the calls is given here.

Turning to `c1ccc2cc(Nc3ccc(Nc4ccc5ccccc5c4)cc3)ccc2c1`, the mutagenic call (End Point: IN VITRO CHROMOSOMAL ABERRATIONS, Test System: CHINESE HAMSTER LUNG CELLS (CHL), Metabolic Activation: NONE) is “active; positive (structural changes)”; the mutagenic call (End Point: IN VITRO CHROMOSOMAL ABERRATIONS, Test System: CHINESE HAMSTER OVARY CELLS (CHO), Metabolic Activation: NONE) was “inactive; negative”; the mutagenic call (End Point: IN VITRO CHROMOSOMAL ABERRATIONS, Test System: CHINESE HAMSTER OVARY CELLS (CHO), Metabolic Activation: RAT, LIVER, S-9, AROCLOR 1254) was “inactive; negative”; the mutagenic call (End Point: IN VITRO CHROMOSOMAL ABERRATIONS, Test System: CHL CELLS, Metabolic Activation: S-9) was “active; positive (structural changes); weak response”; the mutagenic call (End Point: IN VITRO CHROMOSOMAL ABERRATIONS, Test System: CHO CELLS, Metabolic Activation: S-9) is “active; positive (structural changes)”; the mutagenic call (Test System: AMES SALMONELLA TYPHIMURIUM, Strain/Indicator: TA98, Metabolic Activation: HAMSTER, LIVER, S-9, AROCLOR 1254 (30%), Method: PREINCUBATION) is “active; positive”. Moreover, the mutagenic call was “inactive; negative” under setting [1]; “inactive; negative” (Test System: AMES SALMONELLA TYPHIMURIUM, Strain/Indicator: TA98, Metabolic Activation: RAT LIVER S-9, PHENOBARBITAL AND BETA-NAPHTHOFLAVONE, Method: PREINCUBATION); “inactive; negative” (Test System: AMES SALMONELLA TYPHIMURIUM, Strain/Indicator: TA98, Metabolic Activation: RAT, LIVER, S-9, AROCLOR 1254 (30%), Method: PREINCUBATION); “inactive; negative” (Test System: AMES SALMONELLA TYPHIMURIUM, Strain/Indicator: TA100, Metabolic Activation: HAMSTER, LIVER, S-9, AROCLOR 1254 (30%), Method: PREINCUBATION); “inactive; negative” under setting [2]; “inactive; negative” (Test System: AMES SALMONELLA TYPHIMURIUM, Strain/Indicator: TA100, Metabolic Activation: RAT LIVER S-9, PHENOBARBITAL AND BETA-NAPHTHOFLAVONE, Method: PREINCUBATION). In addition, the mutagenic call was “inactive; negative” (Test System: AMES SALMONELLA TYPHIMURIUM, Strain/Indicator: TA100, Metabolic Activation: RAT, LIVER, S-9, AROCLOR 1254 (30%), Method: PREINCUBATION); “inactive; negative” under setting [3]; “inactive; negative” (Test System: AMES SALMONELLA TYPHIMURIUM, Strain/Indicator: TA1535, Metabolic Activation: RAT LIVER S-9, PHENOBARBITAL AND BETA-NAPHTHOFLAVONE, Method: PREINCUBATION); “inactive; negative” under setting [4]; “inactive; negative” (Test System: AMES SALMONELLA TYPHIMURIUM, Strain/Indicator: TA1537, Metabolic Activation: RAT LIVER S-9, PHENOBARBITAL AND BETA-NAPHTHOFLAVONE, Method: PREINCUBATION); “inactive; negative” (Test System: AMES SALMONELLA TYPHIMURIUM, Strain/Indicator: TA1538, Metabolic Activation: NONE, Method: PREINCUBATION). The mutagenic call (Test System: AMES SALMONELLA TYPHIMURIUM, Strain/Indicator: TA1538, Metabolic Activation: RAT LIVER S-9, PHENOBARBITAL AND BETA-NAPHTHOFLAVONE, Method: PREINCUBATION) was “inactive; negative”; the mutagenic call (Test System: E.COLI, Strain/Indicator: WP2UVRA, Metabolic Activation: NONE, Method: PREINCUBATION) was “inactive; negative”; the mutagenic call (Test System: E.COLI, Strain/Indicator: WP2UVRA, Metabolic Activation: RAT LIVER S-9, PHENOBARBITAL AND BETA-NAPHTHOFLAVONE, Method: PREINCUBATION) is “inactive; negative”.
Regarding `COc1cc(N)c([N+](=O)[O-])cc1N`, the mutagenic call (Test System: AMES SALMONELLA TYPHIMURIUM, Strain/Indicator: TA98, Metabolic Activation: NONE, Method: STANDARD PLATE) is “active; positive”; the mutagenic call (Test System: AMES SALMONELLA TYPHIMURIUM, Strain/Indicator: TA98, Metabolic Activation: RAT, LIVER, S-9, AROCLOR 1254, Method: STANDARD PLATE) was “active; positive”; the mutagenic call under setting [5] is “inactive; negative”; the mutagenic call (Test System: AMES SALMONELLA TYPHIMURIUM, Strain/Indicator: TA100, Metabolic Activation: RAT, LIVER, S-9, AROCLOR 1254, Method: STANDARD PLATE) was “active; positive”; the mutagenic call (Test System: AMES SALMONELLA TYPHIMURIUM, Strain/Indicator: TA1535, Metabolic Activation: NONE, Method: STANDARD PLATE) is “inactive; negative”; the mutagenic call (Test System: AMES SALMONELLA TYPHIMURIUM, Strain/Indicator: TA1535, Metabolic Activation: RAT, LIVER, S-9, AROCLOR 1254, Method: STANDARD PLATE) is “inactive; negative”. Besides, the mutagenic call runs as follows: under setting [6], “active; positive”; (Test System: AMES SALMONELLA TYPHIMURIUM, Strain/Indicator: TA1537, Metabolic Activation: RAT, LIVER, S-9, AROCLOR 1254, Method: STANDARD PLATE) “active; positive”; (Test System: AMES SALMONELLA TYPHIMURIUM, Strain/Indicator: TA1538, Metabolic Activation: NONE, Method: STANDARD PLATE) “active; positive”; (Test System: AMES SALMONELLA TYPHIMURIUM, Strain/Indicator: TA1538, Metabolic Activation: RAT, LIVER, S-9, AROCLOR 1254, Method: STANDARD PLATE) “active; positive”.
With `COc1ccc2c3c([nH]c2c1)C(C)=NCC3`, the mutagenic call reads like this: (Test System: AMES SALMONELLA TYPHIMURIUM, Strain/Indicator: TA97, Metabolic Activation: NONE, Method: PREINCUBATION) “inactive; negative”; (Test System: AMES SALMONELLA TYPHIMURIUM, Strain/Indicator: TA97, Metabolic Activation: RAT, LIVER, S-9, AROCLOR 1254, Method: PREINCUBATION) “inactive; negative”; under setting [1], “inactive; negative”; (Test System: AMES SALMONELLA TYPHIMURIUM, Strain/Indicator: TA98, Metabolic Activation: RAT, LIVER, S-9, AROCLOR 1254, Method: PREINCUBATION) “inactive; negative”; under setting [2], “inactive; negative”; (Test System: AMES SALMONELLA TYPHIMURIUM, Strain/Indicator: TA100, Metabolic Activation: RAT, LIVER, S-9, AROCLOR 1254, Method: PREINCUBATION) “inactive; negative”. In addition, the mutagenic call is “inactive; negative” (Test System: AMES SALMONELLA TYPHIMURIUM, Strain/Indicator: TA102, Metabolic Activation: NONE, Method: PREINCUBATION) and “inactive; negative” (Test System: AMES SALMONELLA TYPHIMURIUM, Strain/Indicator: TA102, Metabolic Activation: RAT, LIVER, S-9, AROCLOR 1254, Method: PREINCUBATION).
Turning to `C#CC(OC(=O)NC1CCCCC1)(c1ccccc1)c1ccccc1`, under setting [5], the mutagenic call was “active; positive”.
Take `Cc1cc(C)n(-c2nnc(NN)c3c2[nH]c2ccccc23)n1`: the mutagenic call is, setting by setting: under setting [1], “inactive; negative”; (Test System: AMES SALMONELLA TYPHIMURIUM, Strain/Indicator: TA98, Metabolic Activation: RAT, LIVER, S-9, AROCLOR 1254 (4 OR 10%), Method: PREINCUBATION) “inactive; negative”; under setting [2], “inactive; negative”; (Test System: AMES SALMONELLA TYPHIMURIUM, Strain/Indicator: TA100, Metabolic Activation: RAT, LIVER, S-9, AROCLOR 1254 (4 OR 10%), Method: PREINCUBATION) “inactive; negative”; under setting [3], “inactive; negative”; (Test System: AMES SALMONELLA TYPHIMURIUM, Strain/Indicator: TA1535, Metabolic Activation: RAT, LIVER, S-9, AROCLOR 1254 (10%), Method: PREINCUBATION) “inactive; negative”. Further, the mutagenic call under setting [4] is “inactive; negative” and the mutagenic call (Test System: AMES SALMONELLA TYPHIMURIUM, Strain/Indicator: TA1537, Metabolic Activation: RAT, LIVER, S-9, AROCLOR 1254 (4 OR 10%), Method: PREINCUBATION) was “inactive; negative”.
`COc1cc2c(cc1O)CC[C@@H]1[C@@H]2CC[C@]2(C)[C@@H](O)CC[C@@H]12`: the mutagenic call (Test System: Mouse lymphoma, Strain/Indicator: L5178Y (tk+/tk-), Metabolic Activation: Rat, Liver, S-9, Aroclor 1254, Method: Suspension/plate) is “active; equivocal (previous evaluation positive)”.
As for `Cc1cc(O)c2c(c1)C(=O)c1cc(O)c(O)c(O)c1C2=O`, the mutagenic call under setting [6] is “inactive; negative”.

(Values after PubChem BioAssay AID1259407 (Chemical Carcinogenesis Research Information System (CCRIS), 2018).)
